Measured values taken from publication PMC5593639, “NSC30049 inhibits Chk1 pathway in 5-FU-resistant CRC bulk and stem cell populations” (Oncotarget, 2017).
Each block holds one compound with its values, some of them ahead of it.

Key:
HCT-116 cells = experiment: Cell survival (MTT assay), HCT-116; assay type: cell-based, human; conditions: for IC50: Homo sapiens, HCT-116, 48 h; for cytotoxic effect: 48 h
Method: (§1) The survival of cells was determined by MTT (3-(4,5-Dimethylthiazol-2yl-)-2,5-diphenyl tetrazolium bromide) assay (ATCC, Manassas, VA, USA). In principle, the viable cell number is directly proportional to the purple formazan color of the reduced MTT dye, which can be quantitatively measured by spectrophotometry. Briefly, 1,500 cells were plated in quadruplets in 96-well flat-bottom tissue culture plates. After treatment with compounds for certain periods as described in respective figure legends, 10 μl of MTT reagent was added to each well and incubated at 37°C for 4 h to allow the formation of purple color crystals of formazan. In total, 100 μl of detergent solution was added to each well, and the reaction mixture was incubated in dark for 2–4 h at room temperature. The developed color density was then measured spectrophotometrically at 570 nm using the POLARstar Omega micro-plate reader (BMG Labtech, Inc., Cary, NC, USA).

Solubility in water = assay type: physicochemical
[1] = test system: human immunodeficiency virus (HIV) strain 1(RF); design: method as in http://dtp.cancer.gov/dtpstandard/AIDSData/index.jsp; conditions: ref http://dtp.cancer.gov/dtpstandard/AIDSData/index.jsp; cited from earlier work
HT29 cells = experiment: Cell cycle profile by FACS; assay type: cell-based, human; conditions: 2 mM HU 24 h
Method: For determining the cell cycle profile, cells were plated in 60 mm tissue culture dishes and grown until 60% confluence. […] After treatment, cells were harvested at different time intervals, washed with ice-cold PBS and processed for FACS analysis as described previously. The ranges for G0/G1, S, and G2/M phase arrested and sub-G1 apoptotic cells were established on the basis of the corresponding DNA content of the histograms. At minimum, 10,000 cells were counted from each sample.

[2] = test system: Chk1 phosphorylation in HT29 cells; experiment: Western blot of total and phosphorylated Chk1, HT29; assay type: cell-based, human; conditions: 2 mM HU 24 h
Method: (§2) The levels of various proteins were determined by Western blot analysis with our previously described procedure. The antibodies for phospho-Chk1(Ser317), phospho-Chk1(Ser317), phospho-Chk1(Ser319), phospho-Chk1(Ser345), Chk1, and GAPDH were purchased from Cell Signaling Technology (Danvers, MA, USA).

HCT116(p53−/−) cells = experiment: MTT assay, IC50 of HU, HCT116(p53−/−); assay type: cell-based, human; conditions: 72 h, compared with HCT116(p53+/+) cells
Method: as §1

[3] = test system: HCoEpiC normal colonic epithelial cell line; experiment: Cell survival (MTT assay), HCoEpiC; assay type: cell-based; conditions: Homo sapiens, drug alone, 48 h
Method: as §1

LoVo cells = experiment: Cell survival (MTT assay), LoVo; assay type: cell-based; conditions: Homo sapiens, drug alone, 48 h
Method: as §1

SW480 cells = experiment: Cell survival (MTT assay), SW480; assay type: cell-based; conditions: Homo sapiens, drug alone, 48 h
Method: as §1

LS174T cells = experiment: Cell survival (MTT assay), LS174T; assay type: cell-based; conditions: Homo sapiens, drug alone, 48 h
Method: as §1

RKO cells = experiment: Cell survival (MTT assay), RKO; assay type: cell-based; conditions: Homo sapiens, drug alone, 48 h
Method: as §1

CA2 CRC stem cell line = experiment: Spheroid (sphere) formation assay; assay type: cell-based; conditions: Homo sapiens; drug alone, seventh day
Method: Live CA2 cells (100) were seeded in 384-well ultra-low attachment plates. Next, day cells were treated with different concentrations of NSC49L and 5-FU either alone or in combination. Cells were incubated for 7 days and the number of spheroids were counted in control and treated groups under an Olympus inverted microscope with a 10× magnification.

[4] = test system: ALDH1, KLF4, Nanog, Oct4, Sox2, c-Myc mRNA in CA2 cells; experiment: Stem cell marker and self-renewal gene mRNA levels by qRT-PCR; assay type: cell-based, human; conditions: drug alone, 72 h, normalized with GAPDH
Method: Total RNA was isolated from control and treated cells with RNAzol reagent (Invitogen, Carlsbad, CA, USA). The expression of mRNA levels of stemness genes was determined by qRT-PCR using Bio-Rad CFX96 Real Time System C1000 Thermal Cycler. The primers used for amplification of mRNA levels of genes were from Celprogen, Inc., as shown here with their Gene Bank accession and catalog numbers: ALDHA1 (NM_000689, Cat. No. CepALDHA1-02), Klf4 (NM_004235, Cat No. CepKlf4-02), Nanog (NM_024865, Cat. No. CepNanog-02), Oct4 (NM_002701, Cat No. CepOct4-02), Sox2 (NM_003106, Cat. No. CepSox2-02), c-Myc (NM_002467, Cat. No. Cepc-Myc-02) and GAPDH (NM_002046, Cat. No. Cep-GAPDH-02).

[5] = test system: Chk1 phosphorylation in HCT-116 cells; experiment: Western blot of total and phosphorylated Chk1, HCT-116; assay type: cell-based, human; conditions: 5-FU alone, 24 h
Method: as §2

[6] = test system: human-derived CRC stem cell tumors; experiment: Patient-derived tumor xenograft (PDTX) of CRC stem cell tumors; assay type: in vivo, female SCID mice; conditions: 20 mg/kg body weight 5-FU every day, 30 days
Method: With the pharmacokinetics analysis and MTD data in hand, we determined the efficacy of NSC49L and 5-FU alone and in combination for the growth of human-derived CRC stem cell tumors in vivo. CRC stem cells were isolated and characterized from the freshly resected human CRC tumor. One thousands of these CRC stem cells were injected subcutaneously into the right flank of the four 5-week old female SCID mice. After 20 days the first generation tumors (F0) of approximately 2,000 mm^3 in size were harvested. They were divided into four equal pieces and implanted under the skin of the female SCID mice for the growth of second generation tumors (F1) for testing the drug efficacy studies. We divided the F1 tumor bearing mice into four groups and treated them every day subcutaneously with drugs as follows: i) PBS control, (ii) 50 mg/kg body weight NSC49L, (iii) 20 mg/kg body weight 5-FU, and iv) 50 and 20 mg/kg body weight NSC49L and 5-FU, respectively, for 30 days. The treatment with drugs began after 10 days of tumor growth. The body weight and tumor volumes were recorded twice a weak. The experiment was terminated on the 32nd day.

[7] = design: method as in PMID 20482808; conditions: cited from earlier work

SMILES: ClC/C=C\C[N+]12CN3CN(CN(C3)C1)C2 [c-NSC30049]
IC50 (HCT-116 cells; MTT assay, Figure 1B, three experiments): 7.2 µM

SMILES: ClCC=CC[N+]12CN3CN(CN(C3)C1)C2 [NSC30049, 1-(4-Chloro-2-butenyl)-1λ∼5∼,3,5,7-tetraazatricyclo [3.3.1.1∼3,7∼] decane]
Solubility in water (Solubility in water): readily soluble in water
Activity against HIV [1]: inactive

SMILES: C1N2CN3CN1CN(C2)C3 [HMTA, hexamethylenetetramine, reference compound]
cytotoxic effect (HCT-116 cells; MTT assay, Figure 1B): very little cytotoxic effect

IC50 of HU (HCT116(p53−/−) cells): decreased
SMILES: NC(=O)NO [HU, hydroxyurea, reference compound]
Cell cycle distribution G2/M (HT29 cells): 19.4%
Cell cycle distribution S (S-phase arrest) (HT29 cells): 27.7%
Cell cycle distribution S (S-phase arrest) (HT29 cells; HU withdrawn, 8 h drug-free medium): 42.4%
Phosphorylation of Chk1 at S317, S345 and S296 [2]: increased

SMILES: CC[N+](CC)(CC)CC=CCCl.[Cl-] [CBTA, (4-Chloro-but-2-enyl)triethylammonium chloride, reference compound]
cytotoxic effect (HCT-116 cells; MTT assay, Figure 1B): very little cytotoxic effect

IC50 (CA2 CRC stem cell line): 7.5 µM
SMILES: O=c1[nH]cc(F)c(=O)[nH]1 [5-FU, 5-fluorouracil]
IC50 (HCT-116 cells; drug alone, MTT, Table 1, four estimations): 11.5 ± 1.5 µM
IC50 [3]: 513 ± 22 µM
IC50 (LoVo cells): 22 ± 0.9 µM
IC50 (SW480 cells): 113 ± 6 µM
IC50 (LS174T cells): 51 ± 3.8 µM
IC50 (RKO cells): 68 ± 10.4 µM
mRNA levels of ALDH1, KLF4, Nanog, Oct4, Sox2 and c-Myc [4]: decreased
Chk1 phosphorylation (S317, S345, S296) [5]: increased phosphorylation at all three Chk1 sites
Growth of CRC stem cell tumors [6]: initially appreciable; however after the 21st day of treatment growth of the tumors resumed
AUC (bioavailability) [7]: 59710 ± 10580 ng·h/mL
t1/2 [7]: 12.6 ± 3.6 min
